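Briefly, cells in 96-well plates were exposed to five compound concentrations for 48 h, and endpoints were estimated by linear interpolation. TGI marks complete inhibition of growth.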
Tests used:
Test in all cases: inhibition of tumour cell growth, NCI panel, 48 h
[1] = system: HCT-116 colon
[2] = system: MCF7 breast
[3] = system: MALME-3M melanoma
[4] = system: ACHN renal
[5] = system: BT-549 breast
[6] = system: RPMI-8226 leukemia
[7] = system: SW-620 colon
[8] = system: UACC-62 melanoma
[9] = system: NCI-H522 lung
[10] = system: UO-31 renal
[11] = system: HCC-2998 colon
[12] = system: OVCAR-5 ovarian
[13] = system: OVCAR-8 ovarian
[14] = system: COLO 205 colon
[15] = system: RXF 393 renal
[16] = system: M14 melanoma
[17] = system: CCRF-CEM leukemia
[18] = system: SK-MEL-5 melanoma
[19] = system: OVCAR-4 ovarian
[20] = system: MDA-MB-231 breast

Row | Structure (SMILES) | TGI [1] | TGI [2] | TGI [3] | TGI [4] | TGI [5] | TGI [6] | TGI [7] | TGI [8] | TGI [9] | TGI [10] | TGI [11] | TGI [12] | TGI [13] | TGI [14] | TGI [15] | TGI [16] | TGI [17] | TGI [18] | TGI [19] | TGI [20]
1 | CCOC(=O)C(NCc1cccc(C(F)(F)F)c1)(NC(=O)CC)C(F)(F)F (stereo not given) | > 100 µM | > 100 µM | > 100 µM | > 100 µM | > 100 µM | > 100 µM | > 100 µM | > 100 µM | > 100 µM | > 100 µM | > 100 µM | > 100 µM | > 100 µM | > 100 µM | > 100 µM | > 100 µM | > 100 µM | > 100 µM | > 100 µM | > 100 µM
2 | c1ccc(C(=NNc2cnc3ccccc3n2)c2ccccn2)cc1 | > 36.6 µM | 12.2 µM | 23 µM | 12.6 µM | 24.5 µM | > 36.8 µM | 22.5 µM | 20.2 µM | 12.3 µM | 3.25 µM | 19.9 µM | 27.1 µM | 2.68 µM | 24.6 µM | 21.5 µM | 10.9 µM | 28.3 µM | 16 µM | 28 µM | 26.9 µM
3 | Nc1nc(Nc2ccccc2)sc1C(=O)c1cccs1 | 18.2 µM | 24.2 µM | 37.3 µM | > 69.8 µM | 35.7 µM | 37 µM | 37.7 µM | 31 µM | 25.9 µM | 36.2 µM | 32.6 µM | 32.1 µM | 78.4 µM | 22.7 µM | 20.2 µM | 36.2 µM | 16.6 µM | 15.9 µM | 40.6 µM | 68.6 µM
4 | O=C(O)[C@@H]1NC[C@H]2C(Br)=NO[C@H]21 | > 100 µM | > 100 µM | > 100 µM | > 100 µM | > 100 µM | > 100 µM | > 100 µM | > 100 µM | > 100 µM | > 100 µM | > 100 µM | > 100 µM | > 100 µM | > 100 µM | > 100 µM | > 100 µM | > 100 µM | > 100 µM | > 100 µM | > 100 µM
5 | O=c1[nH]cnc2c1ncn2[C@@H]1C[C@H]1CO | > 100 µM | > 100 µM | > 100 µM | > 100 µM | > 100 µM | > 100 µM | > 100 µM | > 100 µM | > 100 µM | > 100 µM | > 100 µM | > 100 µM | > 100 µM | > 100 µM | > 100 µM | > 100 µM | > 100 µM | > 100 µM | > 100 µM | > 100 µM
6 | Cc1cc(-c2nc3ccc(F)cc3s2)ccc1N | > 100 µM | > 100 µM | > 100 µM | > 100 µM | > 100 µM | > 100 µM | > 100 µM | > 100 µM | > 100 µM | > 100 µM | > 100 µM | > 100 µM | > 100 µM | > 100 µM | > 100 µM | > 100 µM | > 100 µM | > 100 µM | – | > 100 µM
7 | COc1ccc(/C(CC2OC(=O)c3ccccc32)=N\NC(=O)C[N+](C)(C)C)cc1 (stereo not given) | 81.9 µM | > 100 µM | > 100 µM | > 100 µM | 77.1 µM | 39.6 µM | 64.1 µM | 40.1 µM | 64.1 µM | 79.6 µM | 30.9 µM | > 100 µM | 52.9 µM | 71 µM | 77.6 µM | > 100 µM | 72 µM | 59.9 µM | 78.5 µM | > 100 µM
8 | CC(C)=CCN1c2ccc(Cl)cc2NC(=O)CC1C (stereo not given) | 38 µM | 45.6 µM | 49.6 µM | 58.3 µM | 59.5 µM | 50.1 µM | > 100 µM | – | 47.4 µM | > 100 µM | > 100 µM | > 100 µM | 39.6 µM | 56.9 µM | 76 µM | 36.1 µM | > 100 µM | 32.2 µM | 87.9 µM | 45.7 µM
9 | CN(C)Cc1cc(C=O)cc(CN(C)C)c1O | > 100 µM | > 100 µM | > 100 µM | > 100 µM | > 100 µM | > 100 µM | > 100 µM | – | > 100 µM | > 100 µM | > 100 µM | – | > 100 µM | > 100 µM | > 100 µM | – | > 100 µM | > 100 µM | > 100 µM | > 100 µM
10 | COC1CC(NC(=O)C(F)(F)F)C(OC(C)=O)C(C)O1 (stereo not given) | > 100 µM | > 100 µM | > 100 µM | > 100 µM | > 100 µM | > 100 µM | > 100 µM | > 100 µM | > 100 µM | > 100 µM | > 100 µM | > 100 µM | > 100 µM | > 100 µM | > 100 µM | > 100 µM | > 100 µM | > 100 µM | > 100 µM | > 100 µM
11 | O=[N+]([O-])c1cc(Cl)cc2cc(Br)cnc12 | > 31.6 µM | > 31.6 µM | > 31.6 µM | > 31.6 µM | > 31.6 µM | > 31.6 µM | > 31.6 µM | > 31.6 µM | > 31.6 µM | > 31.6 µM | > 31.6 µM | > 31.6 µM | > 31.6 µM | > 31.6 µM | > 31.6 µM | > 31.6 µM | > 31.6 µM | > 31.6 µM | > 31.6 µM | > 31.6 µM
12 | CN1CCN(CCCCN2c3ccccc3Sc3cc(N=[N+]=[N-])ccc32)CC1 | 2.98 µM | 3.63 µM | 3.28 µM | 4.56 µM | 21.9 µM | 5.88 µM | 3.47 µM | 3.92 µM | 3.31 µM | 3.76 µM | 2.92 µM | 25.8 µM | 3.85 µM | 3.25 µM | 9.83 µM | 3.28 µM | 4.66 µM | 3.04 µM | 7.5 µM | 4.14 µM
13 | O=C1C(Cl)C(c2cc3cc(Br)ccc3nc2Cl)N1c1ccc(Cl)cc1 (stereo not given) | 12.5 µM | 7.47 µM | 8.91 µM | 11.2 µM | 11.6 µM | 14.1 µM | > 25 µM | 10.2 µM | 8.25 µM | 3.28 µM | 8.04 µM | > 25 µM | > 25 µM | 10.2 µM | 10.6 µM | 20.9 µM | 11.4 µM | 6.38 µM | 9.4 µM | 7.35 µM
14 | O[C@@H]1C[C@H]2N3CC[C@@]2(c2cc4c(cc2C3)OCO4)[C@H]2O[C@@H]12 | > 100 µM | > 100 µM | > 100 µM | > 100 µM | > 100 µM | > 100 µM | > 100 µM | > 100 µM | > 100 µM | > 100 µM | > 100 µM | > 100 µM | > 100 µM | 0.0204 µM | > 100 µM | > 100 µM | > 100 µM | – | > 100 µM | > 100 µM
15 | CN1CC[C@]2(c3cccc(O)c3)CC(=O)/C(=C/c3ccc(Cl)c(Cl)c3)[C@@H]1C2 | 2.47 µM | 9.41 µM | 2.85 µM | 2.38 µM | 3.14 µM | 0.901 µM | 2.41 µM | – | – | 2.61 µM | 2.77 µM | 3.18 µM | 4.35 µM | 2.96 µM | 1.92 µM | 3.08 µM | 2.85 µM | 3.1 µM | – | 2.4 µM
16 | CC(=N\N=C\c1ccccn1)/C(C)=N/N=C(C)/C(C)=N/N=C/c1ccccn1 | > 100 µM | > 100 µM | > 100 µM | > 100 µM | > 100 µM | > 100 µM | > 100 µM | – | > 100 µM | > 100 µM | > 100 µM | > 100 µM | > 100 µM | > 100 µM | > 100 µM | > 100 µM | > 100 µM | > 100 µM | > 100 µM | > 100 µM
17 | Cc1ccc(-c2nc(-c3cnccn3)n(C3OC(CO)C(O)C(O)C3O)n2)cc1 (stereo not given) | > 100 µM | > 100 µM | – | – | > 100 µM | > 100 µM | > 100 µM | > 100 µM | > 100 µM | > 100 µM | > 100 µM | > 100 µM | > 100 µM | > 100 µM | > 100 µM | > 100 µM | > 100 µM | > 100 µM | > 100 µM | > 100 µM
18 | CC(=O)N1CC(=O)N2C(=O)/C(=C/c3ccc(Cl)cc3)N=C12 | > 100 µM | > 100 µM | > 100 µM | > 100 µM | > 100 µM | > 100 µM | > 100 µM | > 100 µM | – | > 100 µM | > 100 µM | > 100 µM | > 100 µM | > 100 µM | > 100 µM | > 100 µM | > 100 µM | > 100 µM | > 100 µM | > 100 µM
19 | C[Si](C)(OCCS(=O)(=O)O)OC(=C1S(=O)(=O)OCCOS1(=O)=O)c1cccc2ccccc12 | > 100 µM | > 100 µM | > 100 µM | > 100 µM | > 100 µM | > 100 µM | > 100 µM | – | – | > 100 µM | > 100 µM | > 100 µM | > 100 µM | > 100 µM | > 100 µM | > 100 µM | > 100 µM | > 100 µM | > 100 µM | > 100 µM

Source: PubChem BioAssay (NCI)
